Legend:
FXa = FXa (Homo sapiens, UniProt P00742); assay: Related protease inhibition: FXa, fluorogenic substrate; type: biochemical; details: fluorogenic substrate at Km, 25° C.; H1-H3 = % activity at 40 μM
Protocol: Human serine protease enzyme Plasma Kallikrein, KLK1, FXa, Plasmin, Thrombin and Trypsin were assayed for enzymatic activity using an appropriate fluorogenic substrate at Km concentration, FXIa at fixed substrate concentration of 100 μM and various concentrations of the test compound.

[1] = molecular target: T1, Human Factor XIIa (hFXIIa) (Homo sapiens, UniProt P00748); assay: Determination of Human Factor XIIa (hFXIIa) inhibition, fluorogenic substrate IC50 assay; type: biochemical; details: fluorogenic substrate H-DPro-Phe-Arg-AFC at Km, 25° C., read-out: Human FXIIa IC50
T1 construct: purchased Enzyme Research Laboratories
T1 sequence (P00748 373-615 limits assumed): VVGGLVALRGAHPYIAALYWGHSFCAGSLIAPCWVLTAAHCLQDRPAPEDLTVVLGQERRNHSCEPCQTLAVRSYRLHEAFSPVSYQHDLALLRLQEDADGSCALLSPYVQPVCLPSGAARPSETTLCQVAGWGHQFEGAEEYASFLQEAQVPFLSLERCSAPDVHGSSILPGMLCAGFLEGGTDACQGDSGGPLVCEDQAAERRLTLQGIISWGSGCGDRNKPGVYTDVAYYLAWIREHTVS
T1 sequence (P00748 20-372 partner limits assumed): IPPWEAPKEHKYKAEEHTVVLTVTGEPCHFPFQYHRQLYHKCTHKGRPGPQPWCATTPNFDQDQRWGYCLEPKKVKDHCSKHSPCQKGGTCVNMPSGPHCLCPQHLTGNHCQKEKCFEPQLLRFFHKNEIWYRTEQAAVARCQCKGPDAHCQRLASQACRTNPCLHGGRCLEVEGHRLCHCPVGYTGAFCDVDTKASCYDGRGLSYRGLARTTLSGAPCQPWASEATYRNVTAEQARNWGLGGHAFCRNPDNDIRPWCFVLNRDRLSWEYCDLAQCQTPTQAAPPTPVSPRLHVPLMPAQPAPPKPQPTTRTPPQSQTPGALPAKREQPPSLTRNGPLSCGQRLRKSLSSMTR
Protocol: Determination of Human Factor XIIa (hFXIIa) inhibition
The Km for the cleavage of the substrate by hFXIIa was determined by standard transformation of the Michaelis-Menten equation, with subsequent inhibition assays performed at substrate Km concentration.

Sequence of FXa (P00742 235-488 limits assumed): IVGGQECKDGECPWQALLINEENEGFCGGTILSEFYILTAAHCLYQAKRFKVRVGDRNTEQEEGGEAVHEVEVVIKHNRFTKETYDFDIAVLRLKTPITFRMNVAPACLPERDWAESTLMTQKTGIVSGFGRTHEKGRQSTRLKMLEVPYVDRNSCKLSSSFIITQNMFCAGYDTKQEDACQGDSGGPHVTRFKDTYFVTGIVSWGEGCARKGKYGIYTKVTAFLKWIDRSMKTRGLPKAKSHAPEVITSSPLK
Sequence of FXa (P00742 41-179 partner limits assumed): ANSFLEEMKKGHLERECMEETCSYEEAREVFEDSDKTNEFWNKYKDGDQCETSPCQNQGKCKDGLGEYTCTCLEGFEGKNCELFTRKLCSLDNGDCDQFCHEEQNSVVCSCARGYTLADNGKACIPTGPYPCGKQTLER

Compound | IC50 (FXa) [nM] | IC50 [1] [nM]
Cc1ccncc1CNC(=O)c1nn(-c2cccc(Cl)c2)c2c1CCN(c1ccc3c(c1)C(=O)N(CCO)CC3)C2=O [Example 1236, 1-(3-chlorophenyl)-6-(2-(2-hydroxyethyl)-1-oxo-1,2,3,4-tetrahydroisoquinolin-7-yl)-N-((4-methylpyridin-3-yl)methyl)-7-oxo-4,5,6,7-tetrahydro-1H-pyrazolo[3,4-c]pyridine-3-carboxamide] | > 40000 | 10 to 100
O=C(NCc1cc(C2CC2)n[nH]1)c1nn(-c2cccc(Cl)c2)c2c1CCN(c1cccc(CN3CCCCC3)c1)C2=O [Example 1237, 1-(3-chlorophenyl)-N-((3-cyclopropyl-1H-pyrazol-5-yl)methyl)-7-oxo-6-(3-(piperidin-1-ylmethyl)phenyl)-4,5,6,7-tetrahydro-1H-pyrazolo[3,4-c]pyridine-3-carboxamide] | > 40000 | 100 to 300
Cc1cc(CNC(=O)c2nn(-c3cccc(Cl)c3)c3c2CCN(c2ccc4c(c2)C(=O)N(C)CCC4)C3=O)nn1C [Example 1238, 1-(3-Chlorophenyl)-N-[(1,5-dimethylpyrazol-3-yl)methyl]-6-(2-methyl-1-oxo-4,5-dihydro-3H-2-benzazepin-8-yl)-7-oxo-4,5-dihydropyrazolo[3,4-c]pyridine-3-carboxamide] | 3000 to 10000 | 100 to 300
CN1CCCc2ccc(N3CCc4c(C(=O)NCC5CC5)nn(-c5cccc(Cl)c5)c4C3=O)cc2C1=O [Example 1239, 1-(3-chlorophenyl)-N-(cyclopropylmethyl)-6-(2-methyl-1-oxo-2,3,4,5-tetrahydro-1H-benzo[c]azepin-8-yl)-7-oxo-4,5,6,7-tetrahydro-1H-pyrazolo[3,4-c]pyridine-3-carboxamide] | 10000 to 40000 | 100 to 300
CN1CCc2ccc(N3CCc4c(C(=O)NCc5cc[nH]n5)nn(-c5cccc(Cl)c5)c4C3=O)cc2C1=O [Example 1245, N-((1H-pyrazol-3-yl)methyl)-1-(3-chlorophenyl)-6-(2-methyl-1-oxo-1,2,3,4-tetrahydroisoquinolin-7-yl)-7-oxo-4,5,6,7-tetrahydro-1H-pyrazolo[3,4-c]pyridine-3-carboxamide] | > 40000 | 100 to 300
Cc1nc(CNC(=O)c2nn(-c3cccc(Cl)c3)c3c2CCN(c2ccc4c(c2)C(=O)N(C)CC4)C3=O)n[nH]1 [Example 1247, 1-(3-chlorophenyl)-6-(2-methyl-1-oxo-1,2,3,4-tetrahydroisoquinolin-7-yl)-N-((5-methyl-1H-1,2,4-triazol-3-yl)methyl)-7-oxo-4,5,6,7-tetrahydro-1H-pyrazolo[3,4-c]pyridine-3-carboxamide] | > 40000 | 100 to 300
Cc1c[nH]nc1CNC(=O)c1nn(-c2cccc(Cl)c2)c2c1CCN(c1ccc3c(c1)C(=O)N(C)CC3)C2=O [Example 1248, 1-(3-chlorophenyl)-6-(2-methyl-1-oxo-1,2,3,4-tetrahydroisoquinolin-7-yl)-N-((4-methyl-1H-pyrazol-3-yl)methyl)-7-oxo-4,5,6,7-tetrahydro-1H-pyrazolo[3,4-c]pyridine-3-carboxamide] | 10000 to 40000 | 100 to 300
CN1CCc2ccc(N3CCc4c(C(=O)NCC5(CO)CC5)nn(-c5cccc(Cl)c5)c4C3=O)cc2C1=O [Example 1250, 1-(3-chlorophenyl)-N-((1-(hydroxymethyl)cyclopropyl)methyl)-6-(2-methyl-1-oxo-1,2,3,4-tetrahydroisoquinolin-7-yl)-7-oxo-4,5,6,7-tetrahydro-1H-pyrazolo[3,4-c]pyridine-3-carboxamide] | > 40000 | 300 to 1000
CN1CCc2ccc(N3CCc4c(C(=O)NCC5(CO)COC5)nn(-c5cccc(Cl)c5)c4C3=O)cc2C1=O [Example 1252, 1-(3-chlorophenyl)-N-((3-(hydroxymethyl)oxetan-3-yl)methyl)-6-(2-methyl-1-oxo-1,2,3,4-tetrahydroisoquinolin-7-yl)-7-oxo-4,5,6,7-tetrahydro-1H-pyrazolo[3,4-c]pyridine-3-carboxamide] | > 40000 | 300 to 1000

Results, then the molecule that gave them:

IC50 (FXa) [nM] | IC50 [1] [nM] | Compound
> 40000 | 100 to 300 | O=C(NCC1CC1)c1nn(-c2cccc(Cl)c2)c2c1CCN(c1ccc3c(c1)C(=O)N(CCF)CC3)C2=O [Example 1253, 1-(3-chlorophenyl)-N-(cyclopropylmethyl)-6-(2-(2-fluoroethyl)-1-oxo-1,2,3,4-tetrahydroisoquinolin-7-yl)-7-oxo-4,5,6,7-tetrahydro-1H-pyrazolo[3,4-c]pyridine-3-carboxamide]
10000 to 40000 | 10 to 100 | Cc1cc(CNC(=O)c2nn(-c3cccc(Cl)c3)c3c2CCN(c2ccc4c(c2)C(=O)N(CCF)CC4)C3=O)nn1C [Example 1254, 1-(3-chlorophenyl)-N-((1,5-dimethyl-1H-pyrazol-3-yl)methyl)-6-(2-(2-fluoroethyl)-1-oxo-1,2,3,4-tetrahydroisoquinolin-7-yl)-7-oxo-4,5,6,7-tetrahydro-1H-pyrazolo[3,4-c]pyridine-3-carboxamide]
> 40000 | 10 to 100 | Cc1cc(C)c(CNC(=O)c2nn(-c3cccc(Cl)c3)c3c2CCN(c2ccc4c(c2)C(=O)N(CCO)CC4)C3=O)cn1 [Example 1256, 1-(3-chlorophenyl)-N-((4,6-dimethylpyridin-3-yl)methyl)-6-(2-(2-hydroxyethyl)-1-oxo-1,2,3,4-tetrahydroisoquinolin-7-yl)-7-oxo-4,5,6,7-tetrahydro-1H-pyrazolo[3,4-c]pyridine-3-carboxamide]
> 40000 | 300 to 1000 | O=C(NCC1CC1)c1nn(-c2cccc(Cl)c2)c2c1CCN(c1ccc3c(c1)C(=O)N(CC1CCOC1)CC3)C2=O (centres unmarked) [Example 1257, 1-(3-chlorophenyl)-N-(cyclopropylmethyl)-7-oxo-6-(1-oxo-2-((tetrahydrofuran-3-yl)methyl)-1,2,3,4-tetrahydroisoquinolin-7-yl)-4,5,6,7-tetrahydro-1H-pyrazolo[3,4-c]pyridine-3-carboxamide]
> 40000 | 100 to 300 | Cc1cc(CNC(=O)c2nn(-c3cccc(Cl)c3)c3c2CCN(c2ccc4c(c2)C(=O)N(CC2CCOC2)CC4)C3=O)nn1C (centres unmarked) [Example 1258, 1-(3-chlorophenyl)-N-((1,5-dimethyl-1H-pyrazol-3-yl)methyl)-7-oxo-6-(1-oxo-2-((tetrahydrofuran-3-yl)methyl)-1,2,3,4-tetrahydroisoquinolin-7-yl)-4,5,6,7-tetrahydro-1H-pyrazolo[3,4-c]pyridine-3-carboxamide]
> 40000 | 300 to 1000 | O=C(NCC1CCOC1)c1nn(-c2cccc(Cl)c2)c2c1CCN(c1ccc3c(c1)C(=O)N(CCO)CC3)C2=O (centres unmarked) [Example 1260, 1-(3-chlorophenyl)-6-(2-(2-hydroxyethyl)-1-oxo-1,2,3,4-tetrahydroisoquinolin-7-yl)-7-oxo-N-((tetrahydrofuran-3-yl)methyl)-4,5,6,7-tetrahydro-1H-pyrazolo[3,4-c]pyridine-3-carboxamide]
> 40000 | 300 to 1000 | COCCN1CCc2ccc(N3CCc4c(C(=O)NCC5CC5)nn(-c5cccc(Cl)c5)c4C3=O)cc2C1=O [Example 1261, 1-(3-chlorophenyl)-N-(cyclopropylmethyl)-6-(2-(2-methoxyethyl)-1-oxo-1,2,3,4-tetrahydroisoquinolin-7-yl)-7-oxo-4,5,6,7-tetrahydro-1H-pyrazolo[3,4-c]pyridine-3-carboxamide]

Source: patent US20260132132A1, “3A,4,5,6-TETRAHYDRO-1 H-PYRAZOLO[3,4-C]PYRIDIN-7(7AH)-ONE DERIVATIVES AS FACTOR XIIA INHIBITORS” (KALVISTA PHARMACEUTICALS LIMITED, priority 2022, published 2026)
